This note sets out measurements from PubChem BioAssay AID608 (Sanford-Burnham Center for Chemical Genomics, 2007).

Active and inactive are the calls of the source. No rule for the calls is given here. Bounds are passed on as bounds.

The target of the assay is Peptidyl-prolyl cis-trans isomerase FKBP1A (Homo sapiens) (UniProt P62942). Kind of assay: FKBP12 binders, biophysical, NMR detection (AID 608). To be noted: NMR binding, purified FKBP12.
Chain of Peptidyl-prolyl cis-trans isomerase FKBP1A (Homo sapiens) (P62942 whole entry, looked up): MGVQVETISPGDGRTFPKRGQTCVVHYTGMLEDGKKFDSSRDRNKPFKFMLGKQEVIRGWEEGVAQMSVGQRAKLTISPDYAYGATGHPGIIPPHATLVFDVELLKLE
`CCc1ccc(OCC(=O)N2CCOCC2)cc1`: the Kd – broadly, the free concentration of one partner at which half of the binding sites on the other are occupied at equilibrium, for simple one-to-one binding – was 0.435 mM.
`COc1cc(O)ccc1C(C)=O`: the Kd was > 4 mM (inactive).
On to `N#Cc1c(N)c(C(=O)c2ccccc2)n2c1CCC2`, for which the Kd is > 4 mM (inactive).
Then `CNC(=O)c1ccc([N+](=O)[O-])cc1Cl`, with > 4 mM (inactive); and `COC(=O)C1CCN(c2ccc(Cl)nn2)CC1`, with > 4 mM (inactive).
In the case of `N#Cc1nc(-c2ccccc2Cl)oc1N1CCOCC1`, the Kd was > 4 mM (inactive).
With `COc1cccc(-c2cc(=O)c3cc(OC)ccc3o2)c1`, the Kd is > 4 mM (inactive).
With `COc1ccccc1-c1nc(=S)[nH][nH]1`, the Kd was > 4 mM (inactive).
In the case of `Cc1ccccc1NC(=O)C1CCC(=O)N1` (centres undefined), the Kd was > 4 mM (inactive).
On to `COC(=O)[C@]1(C)CC[C@]2(C)CC[C@]3(C)C4=CCc5c(cc(O)c(O)c5C)[C@]4(C)CC[C@@]3(C)C2C1` (some centres undefined), for which the Kd was > 4 mM (inactive).
Then `Cc1cc(C(=O)NC(C)c2ccncc2)cs1` (centres undefined), with > 4 mM (inactive); and `O=C(Nc1ccccc1N1CCCC1)c1cccnc1`, with > 4 mM (inactive); and `CCC(CO)NC(=O)c1snnc1C` (centres undefined), with > 4 mM (inactive).
Then `COc1ccc(S(=O)(=O)N2CCOCC2)cc1C(C)C`, with > 4 mM (inactive).
Turning to `Cc1cc(C)n(S(=O)(=O)c2ccc(C(C)(C)C)cc2)n1`, the Kd is > 4 mM (inactive).
Consider `COC1C(O)C(O)C(O)[C@@H](O)C1O` (some centres undefined), for which the Kd is > 4 mM (inactive).
The same measure for `Cn1c(NCc2ccccc2O)nc2ccccc21`: > 4 mM (inactive); for `O=C(O)c1ccccc1C(=O)Nc1ccccc1`: > 4 mM (inactive).
Consider `CNC(=O)C(=O)Nc1cccc(Cl)c1`, for which the Kd is > 4 mM (inactive).
As for `Cc1cc(OCC(=O)N2CCOCC2)cc(C)c1Cl`, the Kd entry was “inactive”.
Regarding `NC(=O)N1CCc2ccccc21`, the Kd is > 4 mM (inactive).
With `COc1ccc(Cc2nnc3c4cnn(C)c4ncn23)cc1`, the Kd is > 4 mM (inactive).
Regarding `CCOC(=O)c1sc(SC)c2c1CCCC2O` (centres undefined), the Kd is > 4 mM (inactive).
In the case of `CCC(=O)Oc1ccc(N2C(=O)CCC2=O)cc1`, the Kd is > 4 mM (inactive).
With `CC(=O)Nc1cc2c(cc1C(=O)C(C)C)OCCO2`, the Kd was > 4 mM (inactive).
The same measure for `O=C(O)C1CN(Cc2ccccc2)CCO1` (centres undefined): > 4 mM (inactive); for `COc1ccccc1N1C(=N)SCC1=O`: > 4 mM (inactive); for `CCOc1ccc2ccccc2c1C(=O)N1CCOCC1`: > 4 mM (inactive).
Regarding `CSc1nc2[nH]ncc2c(=O)[nH]1`, the Kd was > 4 mM (inactive).
As to `COc1cc2c(cc1OC)-c1cc3ccc(OC)c(OC)c3c[n+]1CC2`, the Kd was > 4 mM (inactive).
Consider `c1cncc(C2CCCCN2)c1` (centres undefined), for which the Kd is > 4 mM (inactive).
As for `CCOC(=O)C1CCNCC1`, the Kd is > 4 mM (inactive).
Then `COc1ccc2c(Cl)c(C(=O)N3CCOCC3)sc2c1Cl`, with “inactive”; and `O=C(Nc1cccnc1)c1ccc(Br)s1`, with > 4 mM (inactive).
The same measure for `O=C(CCc1ccc(O)cc1)c1c(O)cc(O)cc1O[C@@H]1O[C@H](CO)[C@@H](O)[C@H](O)[C@H]1O`: > 4 mM (inactive); for `CC[C@@]1(O)C(=O)OCc2c1cc1n(c2=O)Cc2cc3ccccc3nc2-1`: > 4 mM (inactive).
Consider `C[n+]1cccc(C(=O)[O-])c1`, for which the Kd was > 4 mM (inactive).
Take `c1ccc(CCc2nc(-c3ccccn3)no2)cc1`: the Kd is > 4 mM (inactive).
For the compound `Cc1ccc(Nc2nc(N)nc(CC#N)n2)cc1`, the Kd was > 4 mM (inactive).
Turning to `Cc1noc(C)c1C(=O)Nc1ccccn1`, the Kd was > 4 mM (inactive).
The same measure for `COn1c(=O)c(-c2ccco2)[n+]([O-])c2ccccc21`: > 4 mM (inactive); for `O=C(c1cnsn1)N1CCN(c2ccccn2)CC1`: > 4 mM (inactive).
For the compound `O=c1[nH]nc(Cc2ccccn2)c2ccccc12`, the Kd was > 4 mM (inactive).
As for `CCOC(=O)CSc1nnc(C)c(=O)[nH]1`, the Kd is > 4 mM (inactive).
The same measure for `C[C@@H]1OC(O[C@H]2C(O[C@H]3CC[C@@]4(C)C(CC[C@]5(C)C4CC=C4C6CC(C)(C)CC[C@]6(C(=O)O)CC[C@]45C)[C@]3(C)CO)OC[C@H](O)[C@@H]2O)[C@H](O)[C@H](O)[C@H]1O` (some centres undefined): > 4 mM (inactive).
Turning to `Cc1nn(C)c2sc(C(=O)O)cc12`, the Kd is > 4 mM (inactive).
For the compound `Cc1c(N=Cc2ccco2)c(=O)n(-c2ccccc2)n1C`, the Kd is > 4 mM (inactive).
With `O=c1ccc2ccccc2o1`, the Kd was > 4 mM (inactive).
The same measure for `COc1cc(/C=C/C(=O)O)ccc1O`: > 4 mM (inactive).
Turning to `COc1ccc2c3c([nH]c2c1)C(C)=NCC3`, the Kd was > 4 mM (inactive).
As for `Cc1cccc(-n2c(N)cc(=O)[nH]c2=S)c1C`, the Kd is > 4 mM (inactive).
With `CC(C)(C)P(=O)(O)c1ccccc1`, the Kd is > 4 mM (inactive).
As to `O=C(Nc1nnc(-c2ccco2)o1)c1ccc([N+](=O)[O-])o1`, the Kd was > 4 mM (inactive).
Regarding `O=c1c2ccccc2nc2n1CCC2O` (centres undefined), the Kd was > 4 mM (inactive).
The same measure for `CC1=C2C(=CO[C@H](C)[C@H]2C)C(=O)C(C(=O)O)=C1O`: > 4 mM (inactive).
In the case of `O=C(O)CSc1cccc2cccnc12`, the Kd was > 4 mM (inactive).
Regarding `CC(=O)Nc1ccc(-c2cn3ccsc3n2)cc1`, the Kd was > 4 mM (inactive).
For `Cc1[nH]c2ccccc2c1C=Nn1cncn1`, the Kd is > 4 mM (inactive).
Turning to `CC(=O)N1C(=S)NC(=O)/C1=C\c1cccnc1`, the Kd is > 4 mM (inactive).
As to `O=C(O)c1csc(-c2ccccc2)n1`, the Kd is > 4 mM (inactive).
Take `CN1C2CC3C[C@H]1C(O3)C2O` (some centres undefined): the Kd was > 4 mM (inactive).
Take `NC(=O)C1CC2C=CC1C2` (centres undefined): the Kd is > 4 mM (inactive).
Consider `CCOC(=O)c1ccc(Oc2ccc(C)nn2)cc1`, for which the Kd was > 4 mM (inactive).
Take `COC(=O)c1nc(-c2ccccc2)oc1N(C)C`: the Kd is > 4 mM (inactive).
`CN(C(N)=O)C1(C)CCS(=O)(=O)C1` (centres undefined): the Kd is > 4 mM (inactive).
Then `Nc1nc(SCc2ccccc2)ns1`, with > 4 mM (inactive); and `COc1nc(C)ccc1-c1noc(-c2ccco2)n1`, with > 4 mM (inactive).
For the compound `NC(=O)Cn1nc2c3c(cccc3c1=O)-c1ccccc1-2`, the Kd was > 4 mM (inactive).
The same measure for `O=c1c(-c2ccco2)[n+]([O-])c2ccccc2n1O`: > 4 mM (inactive).
Take `COc1ccc(-c2cc(=O)c3c(OC)c(OC)c(OC)c(OC)c3o2)cc1`: the Kd is > 4 mM (inactive).
Turning to `C[C@@H]1CC[C@]2(C(=O)O)CC[C@]3(C)C(=CCC4[C@@]5(C)CC[C@H](O)C(C)(C)C5CC[C@]43C)C2[C@H]1C` (some centres undefined), the Kd was > 4 mM (inactive).
Then `Cc1c(C)[n+](=O)c(-c2cccs2)c(C)n1[O-]`, with > 4 mM (inactive); and `Cc1cc(C)n(-c2nc(N)cc(=O)[nH]2)n1`, with > 4 mM (inactive).
Consider `Cc1cc(C(=O)N2CCN(c3ncccn3)CC2)c(C)o1`, for which the Kd was > 4 mM (inactive).
